In patent US20250319032A1, “PHARMACEUTICAL COMPOSITIONS OF RIBOCICLIB” (Novartis AG, priority 2024, published 2025):
Several values for one entry are separate records, joined by “and”; a condition that tells them apart may be missing. Identical values can stand only once. Values belong to the molecule of their own block, whether it stands above or below them.

How the values were obtained:
[1] = Drug product stability (film-coated tablets, tablet cores, blends, binary mixtures): content of DMP433 on storage; type: physicochemical
Experimental: The experiments were packed in aluminium bags.
Blends and compressed (compacted) mixtures of drug substance with the excipients crospovidone (Type A) and microcrystalline cellulose with standard and low nitrite content, and low substituted hydroxypropyl cellulose (L-HPC) from the drug product composition were subjected to accelerated storage conditions (40° C. and 50° C.) for periods up to 1 month. […]
Binary mixtures were prepared in the same portion as present in the formulation. The samples were packed in alu bags. […]
2.8. Sample solution-ribociclib FCT (KISQALI®) • 1. Grind and homogenize 10 tablets (IKA mill can be used). • 2. Into a 10 mL amber volumetric flask accurately about 180 mg of tablet powder (corresponding to 80 mg of ribociclib free base). • 3. Add solvent (50% MeOH) up to ⅔ of flask volume. Vortex the sample for 1 minute and shake on a mechanical shaker for at least 15 min. Fill to volume with solvent and use vortex for 1 minute. • 4. Filter through 0.2 μm PVDF or PTFE filter into a HPLC amber vial, discard the first 0.5 mL. […]
The content of DMP433 was analysed. […]

[2] = Validation of the HPLC-HRMS method for N-nitroso-ribociclib (precision, accuracy, linearity, LOQ, stability of standard and sample solutions)
Experimental: For the purpose of this validation only, the 100% target limit was set at 3.75 ppm (1500 ng NRR/400 mg ribociclib free base).
Six replicates of the “Sample solution” were prepared according to the procedure described above and tested on the same day. The results are expressed as ppm of NNR with regard to ribociclib free base (μg NNR/g ribociclib free base)
Two series of six replicates of the “Sample solutions” were prepared according to the procedure described above and tested by two different analysts, on two different days, using different LC/MS systems and different columns. The results are expressed as ppm of NNR with regard to ribociclib free base (μg NNR/g ribociclib free base)
Three replicates of calibration standard solutions L1 (c=0.5 ng/ml) and L6 (c=100 ng/ml) were prepared according to the procedure described above. Solutions were stored in the dark at room temperature (autosampler (AS) vials). After a period of time, the solutions were reanalyzed. The stability of standard solutions is evaluated by determining the relative difference between the responses […] The results are expressed as concentration in ng/ml, determined from calibration curve in each sequence (time point).
Three replicates of Sample solution were prepared according to AP. The replicates were analysed at t=0 h and after app. 24 hours and 48 hours of storage in vials AS at room temperature. The results are expressed as ppm of NNR wrt ribociclib free base. (μg NNR/g ribociclib free base).
In addition, FCT samples stored in flasks on the bench were filtered at defined time point and analysed. For 48 hours stability, composite samples (from Accuracy) were used.
Sample solutions were prepare according to the procedure described above using 10 mL, 25 mL and 50 mL flasks, three replicates for each volume. Results for 25 mL and 50 mL were compared to 10 mL volume that is prescribed in the AP. The results are expressed as ppm of NNR with regard to ribociclib free base (μg NNR/g ribociclib free base)
For ribociclib FCT, one composite sample preparation and three replicates of spiked composite sample solutions (prepared as described above) were prepared and tested on the same day.
The samples (drug substance or composite sample) were spiked at 0.5 ng/ml (0.0625 ppm), 30 ng/mlL (3.75 ppm) and 100 ng/ml (12.5 ppm) levels. Amount of NNR present in the unspiked sample was subtracted and recoveries were calculated as a ratio between amounts found and amounts added.
In each sequence, calibration solution L1 was injected six times as part of SST test (Repeatability of injections) and the average response was taken for the calculation of calibration curve. Linear regression was weighed with 1/amount.
Amount of NNR present in the unspiked sample was subtracted (see above) and RSD of corrected amounts calculated.

[3] = DMP433 (N-nitroso-ribociclib) content in ribociclib base (B10) and ribociclib succinate (B12, drug substance) batches and process experiments, LC-MS/MS or HPLC-HRMS; type: physicochemical; conditions: for DMP433 (LOQ: 30 ppb): LEE011-B10, laboratory scale 30 g experiments; for DMP433 in LEE011 B12: laboratory scale salt formation
Excerpt: The method of testing for the presence and/or total amount of nitrosamines (such as the presence and/or total amount of N-nitroso-ribociclib in free or salt form) that is used in the methods of the invention may be any method which allows for the detection of nitrosamines in a composition. For example, the method may involve the Griess test described above. In such a method, the nitrosamines may be first denitrosated (e.g., by photolysis) to form a nitrite, which is then detected in the Griess test. Alternatively, the method may include high performance liquid chromatography (HPLC)- and/or gas chromatography (GC)-mass spectroscopy. An example of a method of testing for the presence and amount of nitrosamines (namely N-nitroso-ribociclib) is provided herein as Example 14. […]
2.7. […] Dissolve the substance using vortex and fill to volume with solvent (50% MeOH). • 3. Filter through 0.2 μm PVDF (polyvinylidene difluoride) or PTFE (polytetrafluoroethylene) filter into a HPLC amber vial, discard the first 0.5 ml.
A calibration curve for DMP433 is created, using calibration standard solutions L1-L6, and expressing the relationship between responses (peak areas) and standard concentrations (ng/ml). For L1, the average of 6 injections is used. Linear regression is weighed with 1/amount. […]

[4] = Nitrite content (ion chromatography; LC-FLD with DAN derivatisation; Griess test) in drug substance, intermediates, reagents, solvents, filters, excipients; type: physicochemical; conditions: for Nitrite (LOQ: 0.1 ppm) / Nitrite, value in brackets below LOQ: LEE011-B10, laboratory scale 30 g experiments; for Nitrite [ppm] LOD (1 ppm): additional batches of ribociclib base LEE011-B10 (IP-1); for Nitrite in LEE011 B12: laboratory scale salt formation
Procedure, shortened: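 Nitrite measured by Griess reaction (sulfanilamide diazotisation, N-(1-naphthyl)ethylenediamine azo coupling, spectrophotometric read) or by DAN derivatisation with C18 HPLC-fluorescence (10 mM KH2PO4 pH 8.0/methanol). About 1000 mg sample in 10 mL methanol/water 1:1; comparison standard ≈100 ppb nitrite.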

[5] = DSC, heating rate 10 ° C./min (with pinhole), cited from earlier work
[6] = NDMA content in LEE011-B12 (IP) after ion exchange resin treatment (option 2 process); type: physicochemical; conditions: (n.d.)
[7] = laboratory use test, salt formation B10 to B12 with filter parts added (filter per experiment), AS&T LJ LC-MS/MS
[8] = laboratory use test, salt formation B10 to B12 with filter parts added, QLS LJ LC-FLD/DAN
[9] = additional batches of ribociclib base LEE011-B10 (IP-1)
[10] = starting material used in the theoretical calculation
[11] = nitrite in iPrOH <5 ppb (1.3 ppb extrapolated)
[12] = nitrite in iPrOH <5 ppb (3.1 ppb extrapolated)

DMP433 content ([1]; T0, binary mixtures/blends/compacts, alu bags): 0.7 ppm
DMP433 content ([1]; T 1 m (50° C./75% RH), alu bags): 1.1 ppm
DMP433 content ([1]; T 2 w (40° C./75% RH), alu bags): 0.9 ppm
DMP433 content ([1]; T 2 w (50° C./75% RH), alu bags): 0.8 ppm
Structure (SMILES): CN(C)C(=O)c1cc2cnc(Nc3ccc(N4CCNCC4)cn3)nc2n1C1CCCC1.O=C(O)CCC(=O)O [DS (B699003AA) (compact)]

NNR Amount found (ppm) ([2]; level S0, unspiked): 0.3328 ppm and 0.3246 ppm and 0.3256 ppm
NNR Amount found (ppm) ([2]; level S2, spiked 3.75 ppm): 3.5823 ppm and 3.7302 ppm and 3.8822 ppm
Structure (SMILES): CN(C)C(=O)c1cc2cnc(Nc3ccc(N4CCNCC4)cn3)nc2n1C1CCCC1.O=C(O)CCC(=O)O [Ribociclib Succinate Drug Substance]
NNR Amount found (ppm) ([2]; level S1, spiked 0.0625 ppm): 0.3754 ppm and 0.3778 ppm and 0.3796 ppm and 0.3774 ppm and 0.3781 ppm and 0.3824 ppm
NNR Amount found (ppm) ([2]; level S3, spiked 12.5 ppm): 11.0295 ppm and 11.6248 ppm and 11.8859 ppm

NNR Average (ppm), Ruggedness ([2]; n = 6): 0.241 ppm
NNR Total average (ppm) ([2]; n = 12, intermediate precision): 0.240 ppm
Structure (SMILES): CN(C)C(=O)c1cc2cnc(Nc3ccc(N4CCNCC4)cn3)nc2n1C1CCCC1.O=C(O)CCC(=O)O [ribociclib succinate drug substance]
NNR (ppm), Ruggedness, single replicate ([2]; second analyst, day, LC/MS system and column, replicates R1-R6): 0.287 ppm and 0.243 ppm and 0.244 ppm and 0.176 ppm and 0.262 ppm and 0.235 ppm

DMP433 [ppb] ([3]; LEE011-DS, further testing): 395 ppb
Nitrite (ppb) ([4]; LEE011-DS, further testing): 284 ppb
Structure (SMILES): CN(C)C(=O)c1cc2cnc(Nc3ccc(N4CCNCC4)cn3)nc2n1C1CCCC1.O=C(O)CCC(=O)O [Batch 833268A259]

DMP433 [ppm] [3, 7]: 1.272 ppm
Nitrite [ppm] [4, 8]: app. 0.3 ppm
Structure (SMILES): CN(C)C(=O)c1cc2cnc(Nc3ccc(N4CCNCC4)cn3)nc2n1C1CCCC1.O=C(O)CCC(=O)O [LEE011-cusakal1-033]

DMP433 content ([1]; binary studies of drug substance with excipients, T0): 0.7 ppm
DMP433 content ([1]; binary studies, 40° C., T 2 Weeks): 0.9 ppm
DMP433 content ([1]; binary studies, 50° C., T 1 Month): 1.1 ppm
DMP433 content ([1]; binary studies, 50° C., T 2 Weeks): 0.8 ppm
Structure (SMILES): CN(C)C(=O)c1cc2cnc(Nc3ccc(N4CCNCC4)cn3)nc2n1C1CCCC1.O=C(O)CCC(=O)O [DS (B699003AA) compact]

DMP433 (LOQ: 30 ppb) [3]: 55.8 ppb
Nitrite (LOQ: 0.1 ppm) [4]: < 0.1 ppm
Nitrite, value in brackets below LOQ [4]: 0.08 ppm
Structure (SMILES): CN(C)C(=O)c1cc2cnc(Nc3ccc(N4CCNCC4)cn3)nc2n1C1CCCC1 [Batch 805193A095]

DMP433 [ppm] [3, 7]: 1.487 ppm
Nitrite [ppm] [4, 8]: app. 0.3 ppm
Structure (SMILES): CN(C)C(=O)c1cc2cnc(Nc3ccc(N4CCNCC4)cn3)nc2n1C1CCCC1 [LEE011-cusakal1-032]

DMP433 (LOQ: 30 ppb) [3]: 78.8 ppb
Nitrite (LOQ: 0.1 ppm) [4]: < 0.1 ppm
Nitrite, value in brackets below LOQ [4]: 0.07 ppm
Structure (SMILES): CN(C)C(=O)c1cc2cnc(Nc3ccc(N4CCNCC4)cn3)nc2n1C1CCCC1 [Batch 805193A098]

DMP433 [ppb] [3, 9]: 130 ppb
DMP433 [ppm] [3, 10]: 0.03 ppm
Nitrite [ppm] LOD (1 ppm) [4]: <LOD
Nitrite [ppm] [4, 10]: <0.1 ppm
Structure (SMILES): CN(C)C(=O)c1cc2cnc(Nc3ccc(N4CCNCC4)cn3)nc2n1C1CCCC1 [Batch B705468]

DMP433 [ppm] [3, 7]: 0.530 ppm
Nitrite [ppm] [4, 8]: app. 0.6 ppm
Structure (SMILES): CN(C)C(=O)c1cc2cnc(Nc3ccc(N4CCNCC4)cn3)nc2n1C1CCCC1.O=C(O)CCC(=O)O [LEE011-cusakan1-050]

DMP433 [ppm] [3, 7]: 1.682 LJ ppm
Nitrite [ppm] [4, 8]: app. 0.26 ppm
Structure (SMILES): CN(C)C(=O)c1cc2cnc(Nc3ccc(N4CCNCC4)cn3)nc2n1C1CCCC1.O=C(O)CCC(=O)O [LEE011-cusakal1-021]

DMP433 [ppm] [3, 7]: 2.100 ppm
Nitrite [ppm] [4, 8]: app. 0.3 ppm
Structure (SMILES): CN(C)C(=O)c1cc2cnc(Nc3ccc(N4CCNCC4)cn3)nc2n1C1CCCC1.O=C(O)CCC(=O)O [LEE011-cusakal1-036]

Structure (SMILES): CN(C)C(=O)c1cc2cnc(Nc3ccc(N4CCNCC4)cn3)nc2n1C1CCCC1.O=C(O)CCC(=O)O [ribociclib succinate Form E]
Endothermic onset [5]: 210.0 °C
Enthalpy ([5]; melting/decomposition, for information only): 194.8 J/g

DMP433 [ppb] [3, 9]: 51 ppb
Nitrite [ppm] LOD (1 ppm) [4]: <LOD
Structure (SMILES): CN(C)C(=O)c1cc2cnc(Nc3ccc(N4CCNCC4)cn3)nc2n1C1CCCC1 [Batch 805193A077]

depletion of DMP433 in the ribociclib succinate (B12) crystal by additional washing ([3]; 3 washes vs 2 washes of isopropanol): about 38%
DMP433 in LEE011-B12 (IP) ([3]; resin loading vs B10 20 w/w %, B10 Raybow batch 805193A078, option 2 process): 220 ppb
DMP433 in LEE011-B12 (IP) ([3]; resin loading vs B10 50 w/w %, wet cake, B10 Raybow batch 805193A078): 211 ppb
DMP433 in LEE011-B12 (IP) ([3]; resin loading vs B10 100 w/w %, wet cake, B10 Raybow batch 805193A078): 238 ppb
NDMA in LEE011-B12 (IP) ([6]; resin loading vs B10 20 w/w %): <100 ppb
NDMA in LEE011-B12 (IP) ([6]; resin loading vs B10 50 w/w %): <100 ppb
NDMA in LEE011-B12 (IP) ([6]; resin loading vs B10 100 w/w %): <100 ppb
Structure (SMILES): CN(C)C(=O)c1cc2cnc(Nc3ccc(N4CCNCC4)cn3)nc2n1C1CCCC1.O=C(O)CCC(=O)O [Ribociclib succinate]

DMP433 in LEE011-B10 ([3]; B10 starting material of resin experiments): DMP433: 92 ppb
DMP433 [ppb] [3, 9]: 78 ppb
DMP433 in LEE011 B12 ([3]; nitrite in iPrOH 119.6 ppb): 14238 ppb
DMP433 in LEE011 B12 ([3]; nitrite in iPrOH 162.7 ppb): 18011 ppb
DMP433 in LEE011 B12 [3, 11]: 995 ppb
DMP433 in LEE011 B12 [3, 12]: 1513 ppb
DMP433 in LEE011-B12 (IP) ([3]; nitrite in IPA 1.6 ppb, resin treatment of B10/IPA solution): 220 ppb
DMP433 in LEE011-B12 (IP) ([3]; nitrite in IPA 1.6 ppb, resin treatment only IPA (nitrite carryover from B10 remained)): 528 ppb
Nitrite [ppm] LOD (1 ppm) [4]: <LOD
Nitrite in LEE011 B12 [4, 11]: 448 ppb
Nitrite in LEE011 B12 [4, 12]: 326 ppb
Structure (SMILES): CN(C)C(=O)c1cc2cnc(Nc3ccc(N4CCNCC4)cn3)nc2n1C1CCCC1 [Batch 805193A078]
